The test system of the assay is AKR/Lw mice, AKR lymphoma ip, median survival T/C. The assay can be described thus: NCI In Vivo Anticancer Drug Screen. Data for tumor model Lymphoma AKR (Transplanted) (intraperitoneal) in AKR/Lw mice. The settings on record: endpoint: median survival time, higher = longer survival. As for the experimental part: The antitumor activity of compounds was measured in mice bearing transplantable tumors. Survival or tumor size were measured and the results are expressed as the measurement made in the treated group (T) divided by the measurement made in the vehicle treated control group (C). The tumor model used in this assay is Lymphoma AKR (Transplanted) (intraperitoneal) in AKR/Lw mice

The mark [1] stands for this setting: dose: 12.5 mg/kg/injection, schedule: Q04DX003 (ip), vehicle: saline.
The mark [2] stands for this setting: dose: 25.0 mg/kg/injection, schedule: Q01DX001 (ip), vehicle: saline.
The mark [3] stands for this setting: dose: 25.0 mg/kg/injection, schedule: Q04DX003 (ip), vehicle: saline.
Setting [4] is: dose: 100.0 mg/kg/injection, schedule: Q01DX001 (ip), vehicle: saline.
[5] abbreviates: dose: 100.0 mg/kg/injection, schedule: Q01DX001 (ip), vehicle: Klucel (hydroxypropylcellulose) (HPC).
[6] abbreviates: dose: 200.0 mg/kg/injection, schedule: Q01DX001 (ip), vehicle: Klucel (hydroxypropylcellulose) (HPC).
The mark [7] stands for this setting: dose: 400.0 mg/kg/injection, schedule: Q01DX001 (ip), vehicle: Klucel (hydroxypropylcellulose) (HPC).

Several values for one entry are separate records, joined by “and”; a condition that tells them apart may be missing. Equal entries are not always repeated. Toxic doses and inconclusive results are not listed.

Regarding `Nc1ccn(C2OC(CO)C(O)C2O)c(=O)n1` (centres undefined), the T/C by setting is: (dose: 0.18 mg/kg/injection, schedule: Q01DX009 (ip), vehicle: saline) 87 % of control; (dose: 0.25 mg/kg/injection, schedule: Q01DX015 (ip), vehicle: saline) 86 % of control; (dose: 0.37 mg/kg/injection, schedule: Q01DX009 (ip), vehicle: saline) 96 % of control; (dose: 0.5 mg/kg/injection, schedule: Q01DX015 (ip), vehicle: saline) 93 % of control; (dose: 0.75 mg/kg/injection, schedule: Q01DX009 (ip), vehicle: saline) 100 % of control; (dose: 1.0 mg/kg/injection, schedule: Q01DX015 (ip), vehicle: saline) 100 % of control. Moreover, the T/C is 94 % of control (dose: 3.12 mg/kg/injection, schedule: Q04DX003 (ip), vehicle: saline); 150 % of control (dose: 5.0 mg/kg/injection, schedule: Q01DX009 (ip), vehicle: saline); 150 % of control (dose: 5.0 mg/kg/injection, schedule: Q03HX032 (ip), vehicle: saline); 150 % of control (dose: 10.0 mg/kg/injection, schedule: Q03HX032 (ip), vehicle: saline); 94 % of control under setting [1]; 97 % of control (dose: 15.0 mg/kg/injection, schedule: Q01DX009 (ip), vehicle: saline with Tween-80). In addition, the T/C (dose: 15.0 mg/kg/injection, schedule: Q04DX003 (ip), vehicle: saline) is 120 % of control; the T/C (dose: 18.75 mg/kg/injection, schedule: Q06HX004 (ip), vehicle: saline) is 150 % of control; the T/C (dose: 18.75 mg/kg/injection, schedule: Q06HX016 (ip), vehicle: saline) was 170 % of control; the T/C (dose: 18.8 mg/kg/injection, schedule: Q04DX003 (ip), vehicle: saline) is 87 % of control; the T/C (dose: 19.0 mg/kg/injection, schedule: Q04DX003 (ip), vehicle: saline) is 100 % of control; the T/C under setting [2] is 97 % of control. Also, the T/C was 100 % of control under setting [3]; 96 % of control (dose: 40.0 mg/kg/injection, schedule: Q06HX012 (ip), vehicle: saline); 94 % of control and 100 % of control (dose: 50.0 mg/kg/injection, schedule: Q01DX001 (ip), vehicle: saline); 100 % of control (dose: 50.0 mg/kg/injection, schedule: Q04DX003 (ip), vehicle: saline); 100 % of control under setting [4]; 87 % of control and 96 % of control (dose: 100.0 mg/kg/injection, schedule: Q01DX009 (ip), vehicle: saline). In addition, the T/C was 59 % of control (dose: 150.0 mg/kg/injection, schedule: Q03HX016 (ip), vehicle: saline) and 110 % of control (dose: 400.0 mg/kg/injection, schedule: Q04DX003 (ip), vehicle: saline).
Regarding `C#CCn1cnc2c(Cl)ncnc21`, the T/C was 97 % of control under setting [5], 104 % of control under setting [6] and 107 % of control under setting [7].
As for `CS(=O)(=O)OCCCNCCCOS(C)(=O)=O`, the T/C reads like this: (dose: 1.6 mg/kg/injection, schedule: Q01DX009 (ip), vehicle: saline) 94 % of control; (dose: 1.9 mg/kg/injection, schedule: Q01DX009 (ip), vehicle: saline) 96 % of control; (dose: 2.0 mg/kg/injection, schedule: Q01DX009 (ip), vehicle: saline) 107 % of control; (dose: 3.1 mg/kg/injection, schedule: Q01DX009 (ip), vehicle: saline) 88 % of control and 100 % of control and 115 % of control; (dose: 3.8 mg/kg/injection, schedule: Q01DX009 (ip), vehicle: saline) 106 % of control; (dose: 4.0 mg/kg/injection, schedule: Q01DX009 (ip), vehicle: saline) 103 % of control. The T/C is, setting by setting: (dose: 6.2 mg/kg/injection, schedule: Q01DX009 (ip), vehicle: saline) 102 % of control; (dose: 6.3 mg/kg/injection, schedule: Q01DX009 (ip), vehicle: saline) 97 % of control; (dose: 8.0 mg/kg/injection, schedule: Q01DX009 (ip), vehicle: saline) 100 % of control; (dose: 12.5 mg/kg/injection, schedule: Q01DX001 (ip), vehicle: saline) 124 % of control; under setting [1], 102 % of control and 106 % of control; under setting [2], 110 % of control. In addition, the T/C was 106 % of control and 112 % of control under setting [3]; 113 % of control (dose: 27.0 mg/kg/injection, schedule: Q04DX003 (ip), vehicle: water); 112 % of control (dose: 45.0 mg/kg/injection, schedule: Q01DX001 (ip), vehicle: saline); 100 % of control and 123 % of control (dose: 60.0 mg/kg/injection, schedule: Q01DX009 (ip), vehicle: saline); 108 % of control (dose: 75.0 mg/kg/injection, schedule: Q01DX001 (ip), vehicle: saline); 192 % of control (dose: 108.0 mg/kg/injection, schedule: Q04DX003 (ip), vehicle: water).
With `CO[C@H]1/C=C/O[C@@]2(C)Oc3c(C)c(O)c4c(O)c(c(/C=N/N5C(C)CN(Cc6ccccc6)CC5C)c(O)c4c3C2=O)NC(=O)/C(C)=C\C=C\[C@H](C)[C@H](O)[C@@H](C)[C@@H](O)[C@@H](C)[C@H](OC(C)=O)[C@@H]1C` (some centres undefined), the T/C (dose: 12.5 mg/kg/injection, schedule: Q01DX008 (ip), vehicle: Klucel (hydroxypropylcellulose) (HPC)) was 99 % of control; the T/C (dose: 25.0 mg/kg/injection, schedule: Q01DX008 (ip), vehicle: Klucel (hydroxypropylcellulose) (HPC)) was 104 % of control; the T/C (dose: 50.0 mg/kg/injection, schedule: Q01DX008 (ip), vehicle: Klucel (hydroxypropylcellulose) (HPC)) is 91 % of control; the T/C (dose: 100.0 mg/kg/injection, schedule: Q01DX008 (ip), vehicle: Klucel (hydroxypropylcellulose) (HPC)) was 103 % of control; the T/C (dose: 200.0 mg/kg/injection, schedule: Q01DX008 (ip), vehicle: Klucel (hydroxypropylcellulose) (HPC)) is 96 % of control; the T/C (dose: 400.0 mg/kg/injection, schedule: Q01DX008 (ip), vehicle: Klucel (hydroxypropylcellulose) (HPC)) is 95 % of control.
Take `O=c1[nH]cc(-c2ccccc2)c(=O)[nH]1`: the T/C by setting is: under setting [4], 94 % of control; (dose: 200.0 mg/kg/injection, schedule: Q01DX001 (ip), vehicle: saline) 88 % of control; (dose: 400.0 mg/kg/injection, schedule: Q01DX001 (ip), vehicle: saline) 97 % of control.
As for `c1cc2cc3c(cc2cc1CC1NCCc2cc4c(cc21)OCO4)OCO3` (centres undefined), the T/C reads like this: under setting [5], 94 % of control; (dose: 100.0 mg/kg/injection, schedule: Q04DX003 (ip), vehicle: Klucel (hydroxypropylcellulose) (HPC)) 96 % of control; under setting [6], 105 % of control; under setting [7], 94 % of control.
Regarding `O=NN(CCCl)C(=O)NC1CC2CCC1C2` (centres undefined), the T/C is 115 % of control (dose: 0.31 mg/kg/injection, schedule: Q04DX004 (ip), vehicle: Klucel (hydroxypropylcellulose) (HPC)); 93 % of control (dose: 0.62 mg/kg/injection, schedule: Q04DX004 (ip), vehicle: Klucel (hydroxypropylcellulose) (HPC)); 102 % of control (dose: 0.75 mg/kg/injection, schedule: Q04DX008 (ip), vehicle: Klucel (hydroxypropylcellulose) (HPC)); 112 % of control (dose: 1.25 mg/kg/injection, schedule: Q04DX004 (ip), vehicle: Klucel (hydroxypropylcellulose) (HPC)); 108 % of control (dose: 1.5 mg/kg/injection, schedule: Q04DX008 (ip), vehicle: Klucel (hydroxypropylcellulose) (HPC)); 112 % of control (dose: 2.5 mg/kg/injection, schedule: Q04DX004 (ip), vehicle: Klucel (hydroxypropylcellulose) (HPC)). Besides, the T/C is 120 % of control (dose: 5.0 mg/kg/injection, schedule: Q04DX004 (ip), vehicle: Klucel (hydroxypropylcellulose) (HPC)); 150 % of control (dose: 5.0 mg/kg/injection, schedule: Q04DX008 (ip), vehicle: Klucel (hydroxypropylcellulose) (HPC)); 114 % of control (dose: 10.0 mg/kg/injection, schedule: Q04DX004 (ip), vehicle: Klucel (hydroxypropylcellulose) (HPC)); 114 % of control (dose: 20.0 mg/kg/injection, schedule: Q04DX004 (ip), vehicle: Klucel (hydroxypropylcellulose) (HPC)).
Regarding `S=c1nc(-c2ccccc2)c(-c2ccccc2)n[nH]1`, the T/C runs as follows: (dose: 100.0 mg/kg/injection, schedule: Q01DX001 (ip), vehicle: saline with Tween-80) 106 % of control; (dose: 200.0 mg/kg/injection, schedule: Q01DX001 (ip), vehicle: saline with Tween-80) 103 % of control; (dose: 400.0 mg/kg/injection, schedule: Q01DX001 (ip), vehicle: saline with Tween-80) 112 % of control.
In the case of `ClCCCNCc1ccccc1`, under setting [4], the T/C was 94 % of control.
